{
  "source": "ChEMBL document CHEMBL1150977",
  "about": "“A quantitative analysis of kinase inhibitor selectivity” (Nat Biotechnol, 2008)",
  "key": {"[1]": {"target": "Maternal embryonic leucine zipper kinase (Homo sapiens, UniProt Q14680)", "sequence (Q14680 whole entry)": "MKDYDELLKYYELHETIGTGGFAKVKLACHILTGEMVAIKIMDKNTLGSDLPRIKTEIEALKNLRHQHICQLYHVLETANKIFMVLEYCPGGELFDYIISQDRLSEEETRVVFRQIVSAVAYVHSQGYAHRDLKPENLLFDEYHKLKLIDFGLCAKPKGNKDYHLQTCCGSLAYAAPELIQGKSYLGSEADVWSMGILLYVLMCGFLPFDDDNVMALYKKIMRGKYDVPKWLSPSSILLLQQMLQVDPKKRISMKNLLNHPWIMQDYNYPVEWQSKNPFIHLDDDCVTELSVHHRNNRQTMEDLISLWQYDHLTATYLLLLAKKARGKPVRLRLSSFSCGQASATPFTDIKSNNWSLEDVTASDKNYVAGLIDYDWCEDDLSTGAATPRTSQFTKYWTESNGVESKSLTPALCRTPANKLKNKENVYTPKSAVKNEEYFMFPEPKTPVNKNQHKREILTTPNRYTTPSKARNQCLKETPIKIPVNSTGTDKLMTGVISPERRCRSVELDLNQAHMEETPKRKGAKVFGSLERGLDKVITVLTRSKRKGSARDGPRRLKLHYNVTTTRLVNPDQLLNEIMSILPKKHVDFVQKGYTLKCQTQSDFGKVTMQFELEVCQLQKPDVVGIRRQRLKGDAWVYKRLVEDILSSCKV"}, "[2]": {"target": "Death-associated protein kinase 1 (Homo sapiens, UniProt P53355)", "sequence (P53355 whole entry)": "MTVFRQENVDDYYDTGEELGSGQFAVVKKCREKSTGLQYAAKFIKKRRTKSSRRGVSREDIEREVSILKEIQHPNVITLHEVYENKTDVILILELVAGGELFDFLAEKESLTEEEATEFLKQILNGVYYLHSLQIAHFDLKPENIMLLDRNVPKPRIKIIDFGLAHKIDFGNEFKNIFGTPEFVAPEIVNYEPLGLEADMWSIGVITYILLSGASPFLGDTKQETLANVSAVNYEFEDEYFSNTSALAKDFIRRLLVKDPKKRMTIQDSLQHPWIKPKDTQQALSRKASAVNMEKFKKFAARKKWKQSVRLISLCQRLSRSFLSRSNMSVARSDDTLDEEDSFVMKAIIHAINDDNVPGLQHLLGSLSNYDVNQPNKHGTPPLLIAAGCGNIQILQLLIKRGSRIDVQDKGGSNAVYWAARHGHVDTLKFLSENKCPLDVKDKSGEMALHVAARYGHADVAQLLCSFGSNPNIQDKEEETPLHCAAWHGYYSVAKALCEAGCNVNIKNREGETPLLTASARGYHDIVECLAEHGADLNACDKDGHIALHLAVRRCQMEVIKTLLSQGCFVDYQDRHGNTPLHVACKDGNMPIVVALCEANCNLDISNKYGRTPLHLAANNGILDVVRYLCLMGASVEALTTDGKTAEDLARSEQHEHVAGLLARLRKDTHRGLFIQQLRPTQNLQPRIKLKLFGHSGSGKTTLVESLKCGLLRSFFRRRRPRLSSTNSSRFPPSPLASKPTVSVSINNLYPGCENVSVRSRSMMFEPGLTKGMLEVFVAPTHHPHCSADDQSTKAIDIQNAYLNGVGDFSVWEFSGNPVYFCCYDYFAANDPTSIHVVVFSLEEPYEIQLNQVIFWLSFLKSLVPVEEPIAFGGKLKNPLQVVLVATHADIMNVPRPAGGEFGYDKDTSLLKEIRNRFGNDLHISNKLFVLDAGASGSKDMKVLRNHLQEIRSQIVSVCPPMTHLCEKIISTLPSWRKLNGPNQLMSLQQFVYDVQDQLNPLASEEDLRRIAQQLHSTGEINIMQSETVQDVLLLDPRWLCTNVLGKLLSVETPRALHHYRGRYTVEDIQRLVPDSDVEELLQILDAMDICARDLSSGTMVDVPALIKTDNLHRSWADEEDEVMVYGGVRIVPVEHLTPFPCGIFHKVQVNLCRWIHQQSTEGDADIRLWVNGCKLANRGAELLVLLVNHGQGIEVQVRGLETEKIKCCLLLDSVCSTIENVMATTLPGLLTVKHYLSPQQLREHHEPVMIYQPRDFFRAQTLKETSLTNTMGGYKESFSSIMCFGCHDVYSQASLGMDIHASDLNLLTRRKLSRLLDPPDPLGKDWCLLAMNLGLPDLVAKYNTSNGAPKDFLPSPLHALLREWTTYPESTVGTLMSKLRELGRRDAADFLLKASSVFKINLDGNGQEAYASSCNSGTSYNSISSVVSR"}, "[3]": {"target": "RAC-gamma serine/threonine-protein kinase (Homo sapiens, UniProt Q9Y243)", "sequence (Q9Y243 whole entry)": "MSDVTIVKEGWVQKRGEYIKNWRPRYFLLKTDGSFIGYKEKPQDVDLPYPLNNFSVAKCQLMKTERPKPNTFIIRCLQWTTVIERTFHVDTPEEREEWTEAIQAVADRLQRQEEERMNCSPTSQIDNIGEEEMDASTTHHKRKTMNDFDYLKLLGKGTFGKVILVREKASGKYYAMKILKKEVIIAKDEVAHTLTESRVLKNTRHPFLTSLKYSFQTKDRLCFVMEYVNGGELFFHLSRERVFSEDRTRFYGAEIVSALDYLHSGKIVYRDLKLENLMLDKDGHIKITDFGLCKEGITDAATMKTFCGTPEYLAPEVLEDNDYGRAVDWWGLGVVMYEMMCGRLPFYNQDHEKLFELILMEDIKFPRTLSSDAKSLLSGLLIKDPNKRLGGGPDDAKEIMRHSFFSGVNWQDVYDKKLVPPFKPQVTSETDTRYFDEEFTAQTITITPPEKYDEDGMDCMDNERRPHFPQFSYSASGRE"}, "[4]": {"target": "Serine/threonine-protein kinase B-raf (Homo sapiens, UniProt P15056, V600E)", "sequence (P15056 2-766 V600E limits assumed)": "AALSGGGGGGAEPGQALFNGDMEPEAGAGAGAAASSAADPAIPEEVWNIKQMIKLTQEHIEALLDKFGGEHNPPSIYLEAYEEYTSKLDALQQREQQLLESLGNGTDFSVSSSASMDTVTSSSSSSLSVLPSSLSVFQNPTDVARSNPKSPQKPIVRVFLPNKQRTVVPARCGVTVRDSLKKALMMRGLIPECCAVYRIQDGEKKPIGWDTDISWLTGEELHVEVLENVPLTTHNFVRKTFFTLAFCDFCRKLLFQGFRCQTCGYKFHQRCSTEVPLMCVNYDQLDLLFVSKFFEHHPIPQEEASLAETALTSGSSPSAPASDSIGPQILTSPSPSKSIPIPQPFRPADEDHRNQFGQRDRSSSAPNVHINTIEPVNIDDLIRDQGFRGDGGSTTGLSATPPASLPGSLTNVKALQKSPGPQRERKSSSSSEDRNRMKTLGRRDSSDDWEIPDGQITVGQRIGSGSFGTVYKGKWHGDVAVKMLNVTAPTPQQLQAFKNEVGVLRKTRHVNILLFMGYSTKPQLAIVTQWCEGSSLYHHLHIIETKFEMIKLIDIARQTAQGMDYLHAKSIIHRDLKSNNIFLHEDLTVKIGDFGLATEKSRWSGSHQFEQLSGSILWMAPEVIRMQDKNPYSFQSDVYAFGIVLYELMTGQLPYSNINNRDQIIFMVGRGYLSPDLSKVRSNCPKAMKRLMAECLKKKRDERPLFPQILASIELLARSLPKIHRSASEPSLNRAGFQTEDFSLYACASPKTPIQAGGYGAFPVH"}, "[5]": {"target": "Mast/stem cell growth factor receptor Kit (Homo sapiens, UniProt P10721, T670I/V559D)"}, "[6]": {"target": "T1, cAMP-dependent protein kinase catalytic subunit PRKX (Homo sapiens, UniProt P51817)", "T1 sequence (P51817 whole entry)": "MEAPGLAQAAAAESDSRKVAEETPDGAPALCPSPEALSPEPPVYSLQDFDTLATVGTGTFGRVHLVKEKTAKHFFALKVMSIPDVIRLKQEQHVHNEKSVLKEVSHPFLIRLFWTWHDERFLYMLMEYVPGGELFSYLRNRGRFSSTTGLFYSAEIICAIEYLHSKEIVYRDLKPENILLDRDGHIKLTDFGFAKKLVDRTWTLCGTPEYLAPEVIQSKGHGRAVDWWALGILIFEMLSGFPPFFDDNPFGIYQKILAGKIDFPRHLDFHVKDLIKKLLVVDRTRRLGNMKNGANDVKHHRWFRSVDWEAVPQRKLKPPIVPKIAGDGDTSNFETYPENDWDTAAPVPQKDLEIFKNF"}, "[7]": {"target": "T2, Receptor-type tyrosine-protein kinase FLT3 (Homo sapiens, UniProt P36888)", "T2 sequence (P36888 whole entry)": "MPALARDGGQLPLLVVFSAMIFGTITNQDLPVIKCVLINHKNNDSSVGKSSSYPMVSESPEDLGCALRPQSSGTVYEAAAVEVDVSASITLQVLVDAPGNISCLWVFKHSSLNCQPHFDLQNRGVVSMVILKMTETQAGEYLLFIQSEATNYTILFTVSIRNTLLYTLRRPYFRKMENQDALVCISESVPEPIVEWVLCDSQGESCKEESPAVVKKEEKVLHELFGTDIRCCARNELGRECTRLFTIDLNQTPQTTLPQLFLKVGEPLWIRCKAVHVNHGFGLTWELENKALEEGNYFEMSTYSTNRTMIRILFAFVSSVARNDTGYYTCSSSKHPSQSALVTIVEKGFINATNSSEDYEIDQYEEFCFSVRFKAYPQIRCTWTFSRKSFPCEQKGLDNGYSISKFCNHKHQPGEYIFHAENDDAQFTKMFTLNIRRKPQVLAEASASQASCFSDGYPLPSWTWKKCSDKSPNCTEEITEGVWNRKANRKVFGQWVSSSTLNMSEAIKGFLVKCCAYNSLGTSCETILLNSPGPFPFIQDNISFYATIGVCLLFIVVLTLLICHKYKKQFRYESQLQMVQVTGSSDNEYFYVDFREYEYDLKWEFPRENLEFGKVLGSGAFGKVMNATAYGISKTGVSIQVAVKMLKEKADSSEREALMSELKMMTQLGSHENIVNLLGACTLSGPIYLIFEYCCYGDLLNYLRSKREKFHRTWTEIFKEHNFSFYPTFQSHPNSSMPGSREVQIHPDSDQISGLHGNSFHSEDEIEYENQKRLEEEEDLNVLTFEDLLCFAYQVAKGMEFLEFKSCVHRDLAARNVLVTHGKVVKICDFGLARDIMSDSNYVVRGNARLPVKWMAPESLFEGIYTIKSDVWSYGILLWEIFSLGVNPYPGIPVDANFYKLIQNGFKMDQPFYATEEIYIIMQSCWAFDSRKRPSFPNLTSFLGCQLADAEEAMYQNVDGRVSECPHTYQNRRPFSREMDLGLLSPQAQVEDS"}, "[8]": {"target": "Tyrosine-protein kinase ABL1 (Homo sapiens, UniProt P00519, T315I)"}, "[9]": {"target": "Dual specificity tyrosine-phosphorylation-regulated kinase 1B (Homo sapiens, UniProt Q9Y463)", "sequence (Q9Y463 whole entry)": "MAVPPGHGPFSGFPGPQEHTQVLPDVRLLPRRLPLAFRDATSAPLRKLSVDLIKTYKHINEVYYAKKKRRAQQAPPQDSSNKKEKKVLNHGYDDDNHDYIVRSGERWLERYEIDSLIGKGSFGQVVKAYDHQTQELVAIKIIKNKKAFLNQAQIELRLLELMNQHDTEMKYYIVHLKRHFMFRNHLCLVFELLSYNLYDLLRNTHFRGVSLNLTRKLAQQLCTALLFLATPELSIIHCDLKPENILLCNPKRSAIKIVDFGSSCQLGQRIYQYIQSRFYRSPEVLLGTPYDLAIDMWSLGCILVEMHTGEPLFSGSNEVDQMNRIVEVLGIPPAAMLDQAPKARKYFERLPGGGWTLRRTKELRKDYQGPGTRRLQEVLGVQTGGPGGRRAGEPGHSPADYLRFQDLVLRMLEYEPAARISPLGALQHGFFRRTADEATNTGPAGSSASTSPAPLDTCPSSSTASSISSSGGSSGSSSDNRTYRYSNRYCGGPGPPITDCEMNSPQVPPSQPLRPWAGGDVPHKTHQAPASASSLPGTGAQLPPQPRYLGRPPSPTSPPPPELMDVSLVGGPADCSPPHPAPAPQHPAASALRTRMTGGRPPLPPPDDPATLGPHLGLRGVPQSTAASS"}, "[10]": {"target": "Serine/threonine-protein kinase 33 (Homo sapiens, UniProt Q9BYT3)", "sequence (Q9BYT3 whole entry)": "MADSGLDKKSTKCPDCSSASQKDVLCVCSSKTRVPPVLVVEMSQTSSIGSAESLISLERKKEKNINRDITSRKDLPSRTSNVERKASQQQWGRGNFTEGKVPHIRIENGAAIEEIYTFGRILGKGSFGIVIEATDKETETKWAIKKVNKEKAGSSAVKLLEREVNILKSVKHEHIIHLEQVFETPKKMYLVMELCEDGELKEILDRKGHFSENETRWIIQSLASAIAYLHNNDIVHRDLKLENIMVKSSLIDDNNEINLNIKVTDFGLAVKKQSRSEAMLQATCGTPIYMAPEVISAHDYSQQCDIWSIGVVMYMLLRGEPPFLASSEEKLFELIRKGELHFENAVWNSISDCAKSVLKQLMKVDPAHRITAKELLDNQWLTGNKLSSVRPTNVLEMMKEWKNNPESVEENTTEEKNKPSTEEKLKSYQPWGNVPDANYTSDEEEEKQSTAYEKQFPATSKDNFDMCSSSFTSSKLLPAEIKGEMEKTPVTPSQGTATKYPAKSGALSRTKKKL"}, "[11]": {"target": "T3, Ephrin type-A receptor 8 (Homo sapiens, UniProt P29322)", "T3 sequence (P29322 whole entry)": "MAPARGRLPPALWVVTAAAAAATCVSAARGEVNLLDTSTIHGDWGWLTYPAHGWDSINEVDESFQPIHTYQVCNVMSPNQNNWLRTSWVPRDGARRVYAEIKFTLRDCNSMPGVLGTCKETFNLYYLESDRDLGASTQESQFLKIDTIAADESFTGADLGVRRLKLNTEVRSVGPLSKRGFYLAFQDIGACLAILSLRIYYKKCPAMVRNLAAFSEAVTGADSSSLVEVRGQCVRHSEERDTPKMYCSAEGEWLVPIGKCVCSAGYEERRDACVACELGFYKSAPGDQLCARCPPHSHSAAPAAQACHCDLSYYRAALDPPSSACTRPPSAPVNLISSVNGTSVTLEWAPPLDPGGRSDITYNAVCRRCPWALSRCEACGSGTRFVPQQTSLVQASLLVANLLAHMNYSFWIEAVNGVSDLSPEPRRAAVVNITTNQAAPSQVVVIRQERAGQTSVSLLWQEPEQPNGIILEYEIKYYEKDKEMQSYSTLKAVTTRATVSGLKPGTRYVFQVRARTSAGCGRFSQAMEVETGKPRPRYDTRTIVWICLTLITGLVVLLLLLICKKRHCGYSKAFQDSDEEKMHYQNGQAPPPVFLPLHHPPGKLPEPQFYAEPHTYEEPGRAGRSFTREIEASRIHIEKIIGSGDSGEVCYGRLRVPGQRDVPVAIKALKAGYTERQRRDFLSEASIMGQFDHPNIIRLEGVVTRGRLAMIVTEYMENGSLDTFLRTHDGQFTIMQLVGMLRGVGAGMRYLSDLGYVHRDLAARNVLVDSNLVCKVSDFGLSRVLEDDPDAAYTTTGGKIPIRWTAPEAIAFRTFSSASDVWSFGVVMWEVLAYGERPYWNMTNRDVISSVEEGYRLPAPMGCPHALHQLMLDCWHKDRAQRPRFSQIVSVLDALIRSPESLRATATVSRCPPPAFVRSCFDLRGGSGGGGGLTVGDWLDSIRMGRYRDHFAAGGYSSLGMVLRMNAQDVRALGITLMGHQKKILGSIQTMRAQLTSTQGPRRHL"}},
  "data": [
    {"molecule": "CCOc1cc2ncc(C#N)c(Nc3ccc(F)c(Cl)c3)c2cc1NC(=O)/C=C/CN(C)C", "note": "[PELITINIB]", "values": [
      {"measurement": "Kd", "setting": "[1]", "value": "> 10", "unit": "µM"},
      {"measurement": "Kd", "setting": "[2]", "value": "> 10", "unit": "µM"},
      {"measurement": "Kd", "setting": "[3]", "value": "> 10", "unit": "µM"},
      {"measurement": "Kd", "setting": "[4]", "value": "> 10", "unit": "µM"},
      {"measurement": "Kd", "setting": "[5]", "value": "> 10", "unit": "µM"},
      {"measurement": "Kd", "setting": "[6]", "value": "> 10", "unit": "µM"},
      {"measurement": "Kd", "setting": "[7]", "value": "> 10", "unit": "µM"}
    ]},
    {"molecule": "COCC(=O)NC/C=C/c1ccc2ncnc(Nc3ccc(Oc4ccc(C)nc4)c(C)c3)c2c1", "note": "[CP-724714]", "values": [
      {"measurement": "Kd", "setting": "[8]", "value": "> 10", "unit": "µM"},
      {"measurement": "Kd", "setting": "[1]", "value": "> 10", "unit": "µM"},
      {"measurement": "Kd", "setting": "[2]", "value": "> 10", "unit": "µM"},
      {"measurement": "Kd", "setting": "[3]", "value": "> 10", "unit": "µM"},
      {"measurement": "Kd", "setting": "[5]", "value": "> 10", "unit": "µM"},
      {"measurement": "Kd", "setting": "[9]", "value": "> 10", "unit": "µM"},
      {"measurement": "Kd", "setting": "[6]", "value": "> 10", "unit": "µM"},
      {"measurement": "Kd", "setting": "[7]", "value": "> 10", "unit": "µM"},
      {"measurement": "Kd", "setting": "[10]", "value": "> 10", "unit": "µM"},
      {"measurement": "Kd", "setting": "[11]", "value": "> 10", "unit": "µM"}
    ]},
    {"molecule": "NC(=O)c1ccc(-c2nc(-c3ccc4c(c3)OCO4)c(-c3ccccn3)[nH]2)cc1", "note": "[SB-431542]", "values": [
      {"measurement": "Kd", "setting": "[8]", "value": "> 10", "unit": "µM"},
      {"measurement": "Kd", "setting": "[1]", "value": "> 10", "unit": "µM"},
      {"measurement": "Kd", "setting": "[2]", "value": "> 10", "unit": "µM"},
      {"measurement": "Kd", "setting": "[3]", "value": "> 10", "unit": "µM"},
      {"measurement": "Kd", "setting": "[5]", "value": "> 10", "unit": "µM"},
      {"measurement": "Kd", "setting": "[9]", "value": "> 10", "unit": "µM"},
      {"measurement": "Kd", "setting": "[6]", "value": "> 10", "unit": "µM"},
      {"measurement": "Kd", "setting": "[10]", "value": "> 10", "unit": "µM"},
      {"measurement": "Kd", "setting": "[11]", "value": "> 10", "unit": "µM"}
    ]},
    {"molecule": "Nc1nc(Nc2ccc(S(N)(=O)=O)cc2)nn1C(=O)c1c(F)cccc1F", "note": "[JNJ-7706621]", "values": [
      {"measurement": "Kd", "setting": "[1]", "value": "> 10", "unit": "µM"},
      {"measurement": "Kd", "setting": "[2]", "value": "> 10", "unit": "µM"},
      {"measurement": "Kd", "setting": "[3]", "value": "> 10", "unit": "µM"},
      {"measurement": "Kd", "setting": "[4]", "value": "> 10", "unit": "µM"},
      {"measurement": "Kd", "setting": "[9]", "value": "> 10", "unit": "µM"},
      {"measurement": "Kd", "setting": "[10]", "value": "> 10", "unit": "µM"},
      {"measurement": "Kd", "setting": "[11]", "value": "> 10", "unit": "µM"}
    ]},
    {"molecule": "Oc1ccc(-c2nc(-c3ccncc3)c(-c3ccc(F)cc3)[nH]2)cc1", "note": "[SB-202190]", "values": [
      {"measurement": "Kd", "setting": "[8]", "value": "> 10", "unit": "µM"},
      {"measurement": "Kd", "setting": "[1]", "value": "> 10", "unit": "µM"},
      {"measurement": "Kd", "setting": "[2]", "value": "> 10", "unit": "µM"},
      {"measurement": "Kd", "setting": "[3]", "value": "> 10", "unit": "µM"},
      {"measurement": "Kd", "setting": "[4]", "value": 0.62, "unit": "µM"},
      {"measurement": "Kd", "setting": "[5]", "value": "> 10", "unit": "µM"},
      {"measurement": "Kd", "setting": "[9]", "value": "> 10", "unit": "µM"},
      {"measurement": "Kd", "setting": "[6]", "value": "> 10", "unit": "µM"},
      {"measurement": "Kd", "setting": "[7]", "value": "> 10", "unit": "µM"},
      {"measurement": "Kd", "setting": "[10]", "value": "> 10", "unit": "µM"},
      {"measurement": "Kd", "setting": "[11]", "value": "> 10", "unit": "µM"}
    ]},
    {"molecule": "CCN1CCN(Cc2ccc(NC(=O)Nc3ccc(Oc4cc(NC)ncn4)cc3)cc2C(F)(F)F)CC1", "note": "[AST-487]", "values": [
      {"measurement": "Kd", "setting": "[6]", "value": "> 10", "unit": "µM"}
    ]}
  ]
}
